Key:
[1] = system: cellular content of cholesterol; format: cell-based
EBOVpp = format: cell-based, Ebola virus
EBOV-GP/HIV-luc = format: cell-based, Ebola virus

With `CCN(CC)CCO[C@H]1CC[C@@]2(C)C(=CC[C@@H]3[C@@H]2CC[C@]2(C)C(=O)CC[C@@H]32)C1` [U18666A] the “cellular content of cholesterol” value [1] was “cholesterol accumulation”.
`O=C1Nc2ccc(Cl)cc2[C@@](C#CC2CC2)(C(F)(F)F)O1` [efavirenz] was tested, and the “inhibitory effect by time of drug addition” value (EBOVpp) was “maintained its inhibitory effect up to 8 hpi”.
For heparin, the “effect on uptake of viral genomic RNA (virus binding to the cell)” value (EBOV-GP/HIV-luc) was “marked inhibition”.
